Results published in patent publication US20050089577A1, “Liquid matrix undergoing phase transfer in vivo and liquid oral preparations” (priority 2002, published 2005).
“And” between values parts separate entries of the source, which are not always exact repeats. Identical values can stand only once. Counter-ions that a name gives are not always drawn.

What was measured:
acetic acid ulcer = experiment: Therapeutic effect in rat acetic acid chronic ulcer model; format: in vivo, Wister male rats; settings: 0.5 ml daily once for 2 weeks, eighth week; for Average ulcer coefficient: 3 rats; for Ulcer coefficient: individual rats
Description: That is, the rats were anesthetized under Nembutal and the belly was cut along the midline to remove the stomach. Then, a cylinder of […] in diameter charged with absorbent cotton impregnated sufficiently with 100% acetic acid was pressed against the border between the stomach and the pyloric region for about 30 seconds, and the acetic acid adhering to the serous membrane was wiped off with a germ-free gauze, and the belly was sutured. After 6 weeks, one rat was picked up as the control at random from the untreated group, killed and dissected to confirm ulcer formation. […] In the seventh and eight weeks, one untreated rat selected at random was killed and the belly was opened to reconfirm formation of stomach ulcer. Each rat was killed in the eight week and the area of the ulcer was measured, and the ulcer coefficient was determined according to a method of Okabe et al. (Okabe S, Roth […] method for experimental penetrating gastric and duodenal ulcers in rats. Observation on normal healing. Amer J Dig Dis 16: 277-284, 1971).

indomethacin ulcer = experiment: Therapeutic effect in indomethacin ulcer rat model; format: in vivo, Wister male rats; design: key: no bleeding was expressed as negative (−); trace bleeding was given (±); dotted bleeding (+); broad bleeding (++); settings: individual rats; given 3 hours after indomethacin 20 mg/kg; judged after 24 hours; PGE1 3.3 μg/kg
Description: 3 hours after administration of indomethacin, prostaglandin (PGE1) liquid preparation No. 41 (containing alprostadil alfadex as the medicine), PGE1 solution dissolved in purified water in a dose of 3.3 μg/kg in weight as a positive control, the liquid matrix only was administered as a negative control, and purified water only for confirming formation of ulcer to the untreated group, respectively, was administered. After 1 hour, the rats were given feed. The untreated group after 3 hours from administration of indomethacin and the other groups after 24 hours were killed, and dissected to judge ulcer and bleeding in the stomach.
Indomethacin ulcer in the fasted rats is different from that in humans, and develops in the stomach without generating in the pyloric vestibule. Therefore, judgment was made on the basis of bleeding. That is, no bleeding was expressed as negative (−), trace bleeding was given (±), dotted bleeding (+), and broad bleeding (++).

[1] = rat, in vivo, 20 mg/kg
Description: These rats were fasted for 24 hours, and then indomethacin (IND) suspended in 1% carboxymethyl cellulose (CMS) solution was administered in a dose of 20 mg/kg to the rats via an oral probe for rat into the stomach to induce indomethacin ulcer.

Row | Compound | Average ulcer coefficient (acetic acid ulcer) | Ulcer coefficient (acetic acid ulcer) | further results
1 | NC[C@H]1CC[C@H](C(=O)Oc2ccc(CCC(=O)O)cc2)CC1 [Cetraxate HCl solution, cetraxate hydrochloride] | 2.33 | – | Ulcer coefficient (acetic acid ulcer; hydrochloride): 2 (2 for 11 to 20 mm^2) (2×) and 3 (3 for 21 to 30 mm^2)
2 | CN/C(=N/CCSCc1nc[nH]c1C)NC#N [Cimetidine solution, cimetidine] | 2.67 | 3 (3 for 21 to 30 mm^2) (2×) and 2 (2 for 11 to 20 mm^2) | –
3 | CCCCC[C@H](O)/C=C/[C@H]1[C@H](O)CC(=O)[C@@H]1CCCCCCC(=O)O [PEG1 solution, prostaglandin (PGE1)] | – | – | Judgment of bleeding in the stomach (indomethacin ulcer): ± (3×) and + and −
4 | CC(=O)CC/C=C(\C)CC/C=C(\C)CC/C=C(\C)CCC=C(C)C [Teprenone solution, teprenone] | 2.33 | 3 (3 for 21 to 30 mm^2) and 2 (2 for 11 to 20 mm^2) (2×) | –
5 | COc1ccc2c(c1)c(CC(=O)O)c(C)n2C(=O)c1ccc(Cl)cc1 [indomethacin] | – | – | Time at which blood concentration reached the maximum ([1]; male, Wister): 3 h; Finding in the stomach [1]: erosive bleeding was observed in the stomach
